What was measured:
mTOR [1] = molecular target: mTOR (Homo sapiens, UniProt P42345); experiment: Western blot for mTOR autophosphorylation at S2481 in cells treated with mTOR kinase inhibitors; format: cell-based; conditions: actively growing Hela and MDA-MB-468 cells; 1 h at 37° C.
Method: (§4) Whole cell lysates were then analyzed for mTOR phosphorylation at S2481. Phosphorylation of the mTORC1 substrate S6K at T389 and the mTORC2 substrate Akt at S473 were analyzed as controls.

[2] = system: ER positive breast cancer; conditions: ER positive breast cancer patients; randomized trial, endocrine therapy plus everolimus; cited from earlier work
mTOR [3] = experiment: Western blot for mTOR autophosphorylation at S2481 in cells treated with mTOR kinase inhibitors; format: cell-based; conditions: actively growing MEFs, U2OS, Hela and MDA-MB-468 cells; 1 h at 37° C.
Method: as §4

S6K = experiment: Western blot for mTORC1 substrate S6K phosphorylated at T389 in cells treated with mTOR kinase inhibitors; conditions: 1 h at 37° C.
Method: as §4

Akt = experiment: Western blot for mTORC2 substrate Akt phosphorylated at S473 in cells treated with mTOR kinase inhibitors; conditions: 1 h at 37° C.
Method: as §4

mTOR [4] = experiment: Immunoblot of whole cell lysates for mTOR phosphorylated on S2481 (rapamycin / insulin treatment); format: cell-based; conditions: serum-starved HEK293 cells; 200 nM insulin for 5 min.
From the text: Antibodies and reagents. The following antibodies were purchased from Cell Signaling Technology: phospho-mTOR(S2448 and S2481), Akt and phospho-Akt (S473) rabbit polyclonal antibodies. Phospho-S6K (T389) and mTOR (mTab1) rabbit polyclonal antibodies were purchased from Millipore. Rictor and mSin1 rabbit polyclonal antibodies were purchased from Bethyl Laboratories. The anti-Raptor rabbit antiserum was developed with the antibody service from Invitrogen utilizing the peptide [sequence], amino acid sequence 918-933 of human Raptor. Rapamycin was purchased from Sigma. Insulin and IGF-1 were purchased from Research Diagnostics, Inc.
Lentivirus-mediated gene knockdown. […]
Virus-containing supernatants were collected 48 hr. after transfection. Cells were infected twice in the presence of 1 μg/ml polybrene, selected for puromycin resistance and analyzed 48-72 hr. post-infection. […]

mTORC2 = molecular target: T1, mTORC2 (Homo sapiens, UniProt P42345+P62942); experiment: Rictor (and Raptor) immunoprecipitates analyzed by immunoblotting for bound mTOR (mTORC2 assembly); format: cell-based; conditions: serum-starved HEK293 cells; 200 nM insulin for 5 min.
T1 construct: endogenous in cells; host or cells: HEK293, U2OS, MDA-MB-231, MDA-MB-468, SKBR3, A549
From the text: (§1) Antibodies and reagents. The following antibodies were purchased from Cell Signaling Technology: phospho-mTOR(S2448 and S2481), Akt and phospho-Akt (S473) rabbit polyclonal antibodies. Phospho-S6K (T389) and mTOR (mTab1) rabbit polyclonal antibodies were purchased from Millipore. Rictor and mSin1 rabbit polyclonal antibodies were purchased from Bethyl Laboratories. The anti-Raptor rabbit antiserum was developed with the antibody service from Invitrogen utilizing the peptide […], amino acid sequence 918-933 of human Raptor. Rapamycin was purchased from Sigma. Insulin and IGF-1 were purchased from Research Diagnostics, Inc.
(§2) Cell culture, cell lysis and immunoprecipitation. […]
(§3) Cells were rinsed 2× with cold PBS and lysed in 1 ml 50 mM Hepes pH 7.5, 150 mM NaCl, 10% glycerol, 0.3% Chaps (v/v), 1.5 mM MgCl2, 1 mM EGTA, 100 mM NaF, 500 μM sodium orthovanadate, 10 μg/ml aprotinin, and 10 μg/ml leupeptin per 10 cm tissue culture dish. […] Protein concentrations were determined using the Bio-Rad DC Protein Assay kit according to manufacturer's protocol. […]
Because S2481 phosphorylation requires intact mTORC2, we tested whether prolonged rapamycin treatment had any effect on S2481 phosphorylation. Whole cell lysates from control and insulin-stimulated cells treated with 100 nM rapamycin for either one or 24 hr were analyzed for phosphorylation of mTOR on S2448 and S2481. […]

mTOR [5] = molecular target: T2, mTOR (Homo sapiens, UniProt P42345+P62942); experiment: Immunoblot of whole cell lysates for mTOR phosphorylated on S2448 (rapamycin / insulin treatment); format: cell-based; conditions: serum-starved HEK293 cells; 200 nM insulin for 5 min.
T2 construct: specifically deplete endogenous mTOR, Rictor or Raptor were expressed in HEK293 cells; endogenous in cells
From the text: as §1, §2, §3
Because S2481 phosphorylation requires intact mTORC2, we tested whether prolonged rapamycin treatment had any effect on S2481 phosphorylation. Whole cell lysates from control and insulin-stimulated cells treated with 100 nM rapamycin for either one or 24 hr were analyzed for phosphorylation of mTOR on S2448 and S2481.

breast cancer = conditions: unselected breast cancer patients; cited from earlier work
[6] = actively growing Hela and MDA-MB-468 cells
[7] = actively growing MEFs, U2OS, Hela and MDA-MB-468 cells

Compound	mTOR autophosphorylation at S2481 (mTOR [3])	phosphorylation of mTORC1 substrate S6K at T389 (S6K; [6])	phosphorylation of mTORC1 substrate S6K at T389 (S6K; [7])	phosphorylation of mTORC2 substrate Akt at S473 (Akt; [6])	phosphorylation of mTORC2 substrate Akt at S473 (Akt; [7])	other results
COc1ccc2c(c1OC)N=C(NC(=O)c1cccnc1)N1CCN=C21 [PIK-90]	–	–	–	–	–	mTOR autophosphorylation at S2481 (mTOR [1]): reduction
CO[C@H]1C[C@@H]2CC[C@@H](C)[C@@](O)(O2)C(=O)C(=O)N2CCCC[C@H]2C(=O)O[C@H]([C@H](C)C[C@@H]2CC[C@@H](OCCO)[C@H](OC)C2)CC(=O)[C@H](C)/C=C(\C)[C@@H](O)[C@@H](OC)C(=O)[C@H](C)C[C@H](C)/C=C/C=C/C=C/1C [everolimus]	–	–	–	–	–	effect on efficacy of endocrine therapy [2]: significantly increases the efficacy of endocrine therapy
CC(C)n1nc(-c2cc3cc(O)ccc3[nH]2)c2c(N)ncnc21 [PP242]	abolished	inhibited	inhibited	inhibited	inhibited	–
insulin: growth factor used to stimulate serum-starved cells; purchased from Research Diagnostics, Inc.	–	–	–	–	–	S2481 phosphorylation of mTOR (mTOR [4]): increased; amount of mTOR associated with either Raptor or Rictor (mTORC2): did not change; S2448 phosphorylation of mTOR (mTOR [5]): increased
CCC(=O)N1CCN(c2ccc(-n3c(=O)ccc4cnc5ccc(-c6cnc7ccccc7c6)cc5c43)cc2C(F)(F)F)CC1 [Torin1]	abolished	inhibited	inhibited	inhibited	inhibited	–
CO[C@H]1C[C@@H]2CC[C@@H](C)[C@@](O)(O2)C(=O)C(=O)N2CCCC[C@H]2C(=O)O[C@H]([C@H](C)C[C@@H]2CC[C@@H](OC(=O)C(C)(CO)CO)[C@H](OC)C2)CC(=O)[C@H](C)/C=C(\C)[C@@H](O)[C@@H](OC)C(=O)[C@H](C)C[C@H](C)/C=C/C=C/C=C/1C [temsirolimus]	–	–	–	–	–	patients who responded to treatment (breast cancer): 10%
